Test results reported in the NIST ThermoML archive (doi:10.1016/j.fluid.2013.05.013).
± gives the expanded uncertainty stated by the source.

Conditions: 101.33 kPa, Liquid; for viscosity: Concentric cylinders viscometry; for mass density: Vibrating tube method

Compound: CCn1cc[n+](C)c1.O=S(=O)([O-])C(F)(F)F [1-ethyl-3-methylimidazolium trifluoromethanesulfonate]
- viscosity (288.15 K): 67.66 ± 0.45 mPa·s
- mass density (288.15 K): 1392.47 ± 0.57 kg/m3
- viscosity (298.15 K): 45.12 ± 0.28 mPa·s
- mass density (298.15 K): 1384.05 ± 0.56 kg/m3
- viscosity (308.15 K): 31.89 ± 0.2 mPa·s
- mass density (308.15 K): 1375.68 ± 0.56 kg/m3
- viscosity (318.15 K): 23.4 ± 0.14 mPa·s
- mass density (318.15 K): 1367.37 ± 0.55 kg/m3

Compound: CCn1cc[n+](C)c1.O=S(=O)([N-]S(=O)(=O)C(F)(F)F)C(F)(F)F
- viscosity (288.15 K): 47.97 ± 0.29 mPa·s
- mass density (288.15 K): 1528.51 ± 0.7 kg/m3
- viscosity (298.15 K): 32.51 ± 0.2 mPa·s
- mass density (298.15 K): 1518.38 ± 0.69 kg/m3
- viscosity (308.15 K): 23.34 ± 0.14 mPa·s
- mass density (308.15 K): 1508.33 ± 0.68 kg/m3
- viscosity (318.15 K): 17.46 ± 0.11 mPa·s
- mass density (318.15 K): 1498.36 ± 0.67 kg/m3
